We go through three compounds from ChEMBL document CHEMBL1201862, “PubChem BioAssay data set” (2004).

The term Ki denotes the dissociation constant of the complex between target and ligand, obtained from inhibition or displacement.

Activity calls are given as the source filed them.

A short description of experiment [1]: SAR analysis of small molecule activators of Apaf-1 using a LZ-Caspase-9/Caspase-3 Fluorescent Selectivity assay - Set 2. It counts as functional. As to conditions: read-out: EC50_Mean.
In experiment [2] the target is T1, Apoptotic protease-activating factor 1 (Homo sapiens, UniProt O14727).
T1 sequence (O14727 whole entry): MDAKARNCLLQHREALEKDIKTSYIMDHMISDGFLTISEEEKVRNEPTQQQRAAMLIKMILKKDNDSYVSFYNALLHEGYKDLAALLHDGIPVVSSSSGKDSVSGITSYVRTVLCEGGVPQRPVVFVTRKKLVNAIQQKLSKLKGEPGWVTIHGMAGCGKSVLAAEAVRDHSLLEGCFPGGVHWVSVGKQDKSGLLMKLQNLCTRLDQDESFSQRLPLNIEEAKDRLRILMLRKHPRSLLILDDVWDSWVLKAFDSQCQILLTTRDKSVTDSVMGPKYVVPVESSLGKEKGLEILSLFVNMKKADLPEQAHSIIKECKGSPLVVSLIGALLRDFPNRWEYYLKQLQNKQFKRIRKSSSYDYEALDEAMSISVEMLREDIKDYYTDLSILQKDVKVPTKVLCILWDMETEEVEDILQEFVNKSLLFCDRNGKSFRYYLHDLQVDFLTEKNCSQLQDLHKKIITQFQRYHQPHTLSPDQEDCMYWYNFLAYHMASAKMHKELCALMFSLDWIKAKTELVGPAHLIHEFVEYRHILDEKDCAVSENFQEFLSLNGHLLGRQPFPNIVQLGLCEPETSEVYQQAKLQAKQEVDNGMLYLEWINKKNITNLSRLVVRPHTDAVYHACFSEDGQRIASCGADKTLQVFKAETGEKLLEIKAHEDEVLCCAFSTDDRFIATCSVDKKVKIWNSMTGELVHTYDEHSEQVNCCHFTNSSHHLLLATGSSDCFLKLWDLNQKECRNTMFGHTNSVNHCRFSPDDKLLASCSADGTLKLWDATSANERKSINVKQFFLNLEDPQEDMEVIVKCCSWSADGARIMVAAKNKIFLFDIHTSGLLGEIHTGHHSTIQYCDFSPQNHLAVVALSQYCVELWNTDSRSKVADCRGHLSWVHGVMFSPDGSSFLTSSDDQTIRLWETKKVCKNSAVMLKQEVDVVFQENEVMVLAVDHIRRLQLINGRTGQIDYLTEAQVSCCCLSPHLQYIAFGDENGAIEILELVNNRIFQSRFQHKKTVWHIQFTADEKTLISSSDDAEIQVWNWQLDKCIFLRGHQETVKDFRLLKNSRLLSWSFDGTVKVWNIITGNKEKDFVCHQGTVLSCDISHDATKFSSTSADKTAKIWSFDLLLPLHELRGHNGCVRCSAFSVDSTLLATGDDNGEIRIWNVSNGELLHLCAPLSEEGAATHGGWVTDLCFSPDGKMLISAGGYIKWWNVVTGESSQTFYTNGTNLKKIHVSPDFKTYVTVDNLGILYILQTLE
The experiment can be described thus: SAR analysis of small molecule Activators of Apaf-1 in a Fluorescent assay - set 2. In kind it is functional. To be noted: read-out: EC50_Mean.

Experiment [3] deals with Serine/threonine-protein kinase pim-1 (Homo sapiens, UniProt P11309). It counts as functional.
Experiment [4] concerns the target Cell division cycle 7-related protein kinase (Homo sapiens, UniProt O00311). It counts as functional.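 Also: value obtained from a kinome-wide kinase panel.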
Experiment [5] deals with Homeodomain-interacting protein kinase 2 (Homo sapiens, UniProt Q9H2X6). It counts as functional.
The target in experiment [6] is Interleukin-1 receptor-associated kinase 4 (Homo sapiens, UniProt Q9NWZ3). In kind it is functional.
In experiment [7] the target is cAMP-dependent protein kinase catalytic subunit alpha (Homo sapiens, UniProt P17612). It counts as functional.
For experiment [8], the target named is Mitogen-activated protein kinase kinase kinase kinase 4 (Homo sapiens, UniProt O95819). In kind it is functional.
The target of experiment [9] is T2, Tyrosine-protein phosphatase non-receptor type 7 (Homo sapiens, UniProt P35236).
T2 sequence (P35236 whole entry): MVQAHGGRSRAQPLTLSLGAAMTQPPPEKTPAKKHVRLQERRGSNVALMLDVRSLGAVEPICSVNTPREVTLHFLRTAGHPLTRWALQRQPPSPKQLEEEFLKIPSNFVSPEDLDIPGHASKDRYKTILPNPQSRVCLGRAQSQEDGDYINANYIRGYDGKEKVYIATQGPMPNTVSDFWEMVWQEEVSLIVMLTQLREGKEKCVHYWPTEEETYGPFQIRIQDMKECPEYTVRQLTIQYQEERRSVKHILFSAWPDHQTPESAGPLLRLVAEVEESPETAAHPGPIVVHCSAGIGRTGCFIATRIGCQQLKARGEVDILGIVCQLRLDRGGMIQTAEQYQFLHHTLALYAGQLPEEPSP
It counts as functional.

Experiment [10] deals with T3, RNA-binding protein pos-1 (Caenorhabditis elegans, UniProt G5EF15).
T3 sequence (G5EF15 whole entry): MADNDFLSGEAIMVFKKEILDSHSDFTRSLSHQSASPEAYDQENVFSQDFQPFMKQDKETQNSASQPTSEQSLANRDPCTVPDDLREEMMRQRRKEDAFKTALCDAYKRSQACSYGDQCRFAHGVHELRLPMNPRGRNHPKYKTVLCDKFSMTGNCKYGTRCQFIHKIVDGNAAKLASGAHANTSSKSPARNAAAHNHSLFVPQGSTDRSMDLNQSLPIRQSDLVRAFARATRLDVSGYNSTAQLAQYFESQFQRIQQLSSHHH
The experiment in a line: disruptors of C. elegans POS-1 RNA interaction – biochemical, fluorescence polarization, dose response (AID 1964).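 Also: purified POS-1 fused to maltose binding protein made in E. coli; potency of compounds blocking POS-1 binding to fluorescent RNA.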 Background: Polarisation of emitted light reports the rotation of a fluorescent probe.

A further experiment addresses T4, Bcl-2-like protein 10 (Homo sapiens, UniProt Q9HD36).
T4 sequence (Q9HD36 whole entry): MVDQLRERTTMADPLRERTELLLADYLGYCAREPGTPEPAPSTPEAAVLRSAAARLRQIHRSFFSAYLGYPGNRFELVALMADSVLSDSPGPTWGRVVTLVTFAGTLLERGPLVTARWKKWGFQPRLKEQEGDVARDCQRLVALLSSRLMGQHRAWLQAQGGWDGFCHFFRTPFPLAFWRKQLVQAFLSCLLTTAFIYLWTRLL
The experiment in a line: Bcl-B/TR3 peptide binding disruption – biochemical, fluorescence polarization, FITC-TR3 peptide, selectivity assay for Bfl-1 inhibitor project, primary screen (AID 748).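 Also: fluorescence polarization from a fluorescein-labelled TR3 peptide binding purified Bcl-B.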

Experiment [11] concerns the target Glyceraldehyde-3-phosphate dehydrogenase (Homo sapiens, UniProt P04406).
In experiment [12] the target is T5, Zinc finger protein mex-5 (Caenorhabditis elegans, UniProt Q9XUB2).
T5 sequence (Q9XUB2 whole entry): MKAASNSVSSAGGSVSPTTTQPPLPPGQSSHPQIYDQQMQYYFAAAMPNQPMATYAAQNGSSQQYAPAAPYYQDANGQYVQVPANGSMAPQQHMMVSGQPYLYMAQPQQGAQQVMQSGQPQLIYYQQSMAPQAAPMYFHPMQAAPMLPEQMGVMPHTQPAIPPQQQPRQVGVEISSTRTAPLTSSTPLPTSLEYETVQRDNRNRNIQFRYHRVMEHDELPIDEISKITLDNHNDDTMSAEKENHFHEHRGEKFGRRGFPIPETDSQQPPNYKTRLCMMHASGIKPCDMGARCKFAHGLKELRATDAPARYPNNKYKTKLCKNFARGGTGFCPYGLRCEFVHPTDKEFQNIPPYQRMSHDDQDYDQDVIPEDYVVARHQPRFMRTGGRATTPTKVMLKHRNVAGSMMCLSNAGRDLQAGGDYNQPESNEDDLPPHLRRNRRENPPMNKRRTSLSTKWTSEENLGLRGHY
The experiment can be described thus: potency of MEX-5 RNA-binding blockers – biochemical, C. elegans, fluorescence polarization, dose response (AID 1960).

The target in experiment [13] is Heat shock cognate 71 kDa protein (Homo sapiens, UniProt P11142). The experiment in a line: In Vitro Hsc70 Dose Response Fluorescence Polarization Assay. [Related pubchem assays: 1072 ].
The target of a further experiment is Large T antigen (Simian virus 40, UniProt P03070). In kind it is functional, Betapolyomavirus macacae.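 Also: Confirmatory-stage PubChem screen for compounds that inhibit SV40 T antigen.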
The target in experiment [14] is Heat shock 70 kDa protein 1A (Homo sapiens, UniProt P0DMV8). The experiment can be described thus: inhibition of Hsp70 binding activity – biochemical, fluorescence polarization, SAR follow-up (AID 1072).
Experiment [15] concerns the target T6, Dual specificity protein phosphatase 6 (Rattus norvegicus, UniProt Q64346).
T6 sequence (Q64346 whole entry): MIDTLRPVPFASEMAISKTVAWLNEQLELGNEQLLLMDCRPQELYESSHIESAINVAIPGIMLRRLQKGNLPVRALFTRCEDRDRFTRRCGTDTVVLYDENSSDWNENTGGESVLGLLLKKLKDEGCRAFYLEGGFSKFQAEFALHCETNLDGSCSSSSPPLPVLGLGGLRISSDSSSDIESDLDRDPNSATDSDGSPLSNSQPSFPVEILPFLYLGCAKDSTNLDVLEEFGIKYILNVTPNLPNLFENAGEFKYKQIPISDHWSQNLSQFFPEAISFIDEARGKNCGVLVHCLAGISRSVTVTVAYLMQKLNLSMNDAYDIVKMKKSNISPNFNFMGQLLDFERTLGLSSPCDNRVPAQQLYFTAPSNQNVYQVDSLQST

The target of experiment [16] is T6, Dual specificity protein phosphatase 6. The experiment in a line: inhibition of rat DUSP6 enzyme activity – biochemical, in vitro, primary screen (AID 425).
The target of experiment [17] is Induced myeloid leukemia cell differentiation protein Mcl-1 (Homo sapiens, UniProt Q07820). It counts as functional.
The target in experiment [18] is Eukaryotic translation initiation factor 4E (Mus musculus, UniProt P63073). The experiment can be described thus: blockers of eIF4G binding by eIF4E – biochemical, TR-FRET, dose response (AID 855).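 Also: potency for disrupting eIF4E binding to eIF4GI seen as loss of FRET.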 It counts as functional. (In general: Time-resolved FRET reads energy transfer from a long-lived donor to a nearby acceptor.)
Experiment [19] concerns the target T6, Dual specificity protein phosphatase 6. It counts as functional.
Experiment [20] has as its target T7, DNA dC->dU-editing enzyme APOBEC-3A (Homo sapiens, UniProt P31941). The experiment in a line: SAR analysis of small molecule inhibitors of APOBEC3A DNA Deaminase via a fluorescence-based single-stranded DNA deaminase assay - Set 2. As to conditions: read-out: IC50_Mean. In kind it is functional.
Experiment [21] deals with T8, DNA dC->dU-editing enzyme APOBEC-3G (Homo sapiens, UniProt Q9HC16). The experiment can be described thus: SAR analysis of small molecule inhibitors of APOBEC3G DNA Deaminase via a fluorescence-based single-stranded DNA deaminase assay - Set 2. In kind it is functional. To be noted: read-out: IC50_Mean.
For experiment [22], the target named is T8, DNA dC->dU-editing enzyme APOBEC-3G. The experiment can be described thus: inhibition of APOBEC3G ssDNA deamination – biochemical, fluorescence, single-stranded DNA substrate, SAR follow-up (AID 602136). In kind it is functional. To be noted: read-out: IC50_Mean.
For experiment [23], the target named is T7, DNA dC->dU-editing enzyme APOBEC-3A. The experiment can be described thus: SAR analysis of small molecule inhibitors of APOBEC3A DNA Deaminase via a fluorescence-based single-stranded DNA deaminase assay. It counts as functional. To be noted: read-out: IC50_Mean.

T8 sequence (Q9HC16 whole entry): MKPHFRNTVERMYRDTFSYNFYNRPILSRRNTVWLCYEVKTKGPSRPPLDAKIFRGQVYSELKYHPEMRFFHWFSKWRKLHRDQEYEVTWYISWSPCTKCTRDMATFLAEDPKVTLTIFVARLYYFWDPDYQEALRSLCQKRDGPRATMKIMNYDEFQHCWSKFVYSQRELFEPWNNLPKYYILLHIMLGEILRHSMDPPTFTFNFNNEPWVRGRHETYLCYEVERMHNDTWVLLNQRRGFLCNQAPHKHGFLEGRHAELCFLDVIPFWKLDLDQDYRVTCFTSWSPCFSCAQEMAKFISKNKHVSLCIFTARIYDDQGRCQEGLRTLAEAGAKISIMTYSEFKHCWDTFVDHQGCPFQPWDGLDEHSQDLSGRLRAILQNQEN
T7 sequence (P31941 whole entry): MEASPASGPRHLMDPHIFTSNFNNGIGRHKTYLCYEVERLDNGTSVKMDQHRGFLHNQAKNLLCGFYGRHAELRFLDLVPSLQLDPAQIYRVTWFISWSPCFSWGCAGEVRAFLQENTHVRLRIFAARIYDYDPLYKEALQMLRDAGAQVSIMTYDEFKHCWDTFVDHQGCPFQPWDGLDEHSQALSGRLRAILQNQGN
Chain of Heat shock cognate 71 kDa protein (P11142 whole entry): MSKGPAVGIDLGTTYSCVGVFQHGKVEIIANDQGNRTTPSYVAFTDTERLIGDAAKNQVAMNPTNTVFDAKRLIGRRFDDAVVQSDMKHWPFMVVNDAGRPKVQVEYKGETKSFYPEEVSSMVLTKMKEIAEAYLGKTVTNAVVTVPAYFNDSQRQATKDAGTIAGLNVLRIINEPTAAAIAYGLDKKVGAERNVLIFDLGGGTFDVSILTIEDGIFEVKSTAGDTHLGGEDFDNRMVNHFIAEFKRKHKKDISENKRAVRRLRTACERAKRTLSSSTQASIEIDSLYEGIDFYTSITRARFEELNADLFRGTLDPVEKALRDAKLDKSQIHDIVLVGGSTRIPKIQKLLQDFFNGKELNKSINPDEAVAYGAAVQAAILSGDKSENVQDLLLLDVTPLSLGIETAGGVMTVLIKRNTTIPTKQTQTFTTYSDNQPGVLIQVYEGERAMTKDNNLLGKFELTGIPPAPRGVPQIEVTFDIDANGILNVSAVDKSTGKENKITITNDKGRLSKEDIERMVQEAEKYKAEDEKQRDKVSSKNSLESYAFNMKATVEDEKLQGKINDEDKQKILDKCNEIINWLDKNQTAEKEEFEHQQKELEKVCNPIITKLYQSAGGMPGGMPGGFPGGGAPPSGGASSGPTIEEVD
Chain of Large T antigen (P03070 whole entry): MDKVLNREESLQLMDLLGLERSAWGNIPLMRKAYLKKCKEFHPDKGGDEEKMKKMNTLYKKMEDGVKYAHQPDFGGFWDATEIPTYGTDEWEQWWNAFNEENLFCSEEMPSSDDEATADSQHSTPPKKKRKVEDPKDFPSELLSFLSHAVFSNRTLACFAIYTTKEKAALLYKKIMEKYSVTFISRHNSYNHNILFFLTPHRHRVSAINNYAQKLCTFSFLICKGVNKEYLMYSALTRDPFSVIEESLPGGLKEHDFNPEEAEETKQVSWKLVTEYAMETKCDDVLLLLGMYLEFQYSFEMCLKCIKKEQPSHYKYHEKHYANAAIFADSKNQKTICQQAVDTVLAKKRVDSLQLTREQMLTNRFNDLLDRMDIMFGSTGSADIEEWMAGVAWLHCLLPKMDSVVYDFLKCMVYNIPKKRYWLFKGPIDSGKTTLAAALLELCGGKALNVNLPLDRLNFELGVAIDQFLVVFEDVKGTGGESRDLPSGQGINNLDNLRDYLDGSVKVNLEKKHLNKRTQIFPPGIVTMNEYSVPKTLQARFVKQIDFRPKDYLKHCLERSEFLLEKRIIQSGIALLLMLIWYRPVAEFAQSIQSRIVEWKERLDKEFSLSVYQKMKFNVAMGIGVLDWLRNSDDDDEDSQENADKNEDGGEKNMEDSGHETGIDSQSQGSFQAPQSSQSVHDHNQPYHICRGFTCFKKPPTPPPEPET
Chain of Interleukin-1 receptor-associated kinase 4 (Q9NWZ3 whole entry): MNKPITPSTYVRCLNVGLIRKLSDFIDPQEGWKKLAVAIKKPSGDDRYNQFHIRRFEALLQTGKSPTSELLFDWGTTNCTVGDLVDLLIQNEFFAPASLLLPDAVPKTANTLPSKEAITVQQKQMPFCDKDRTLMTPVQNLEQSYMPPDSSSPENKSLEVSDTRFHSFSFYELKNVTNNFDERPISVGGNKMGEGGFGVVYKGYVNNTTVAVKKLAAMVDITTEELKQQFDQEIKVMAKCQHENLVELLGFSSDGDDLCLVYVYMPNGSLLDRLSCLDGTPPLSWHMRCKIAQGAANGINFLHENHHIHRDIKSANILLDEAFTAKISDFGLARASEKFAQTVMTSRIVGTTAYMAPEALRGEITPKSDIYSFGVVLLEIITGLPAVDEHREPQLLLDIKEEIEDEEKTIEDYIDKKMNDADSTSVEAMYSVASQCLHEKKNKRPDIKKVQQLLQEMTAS
Chain of Mitogen-activated protein kinase kinase kinase kinase 4 (O95819 whole entry): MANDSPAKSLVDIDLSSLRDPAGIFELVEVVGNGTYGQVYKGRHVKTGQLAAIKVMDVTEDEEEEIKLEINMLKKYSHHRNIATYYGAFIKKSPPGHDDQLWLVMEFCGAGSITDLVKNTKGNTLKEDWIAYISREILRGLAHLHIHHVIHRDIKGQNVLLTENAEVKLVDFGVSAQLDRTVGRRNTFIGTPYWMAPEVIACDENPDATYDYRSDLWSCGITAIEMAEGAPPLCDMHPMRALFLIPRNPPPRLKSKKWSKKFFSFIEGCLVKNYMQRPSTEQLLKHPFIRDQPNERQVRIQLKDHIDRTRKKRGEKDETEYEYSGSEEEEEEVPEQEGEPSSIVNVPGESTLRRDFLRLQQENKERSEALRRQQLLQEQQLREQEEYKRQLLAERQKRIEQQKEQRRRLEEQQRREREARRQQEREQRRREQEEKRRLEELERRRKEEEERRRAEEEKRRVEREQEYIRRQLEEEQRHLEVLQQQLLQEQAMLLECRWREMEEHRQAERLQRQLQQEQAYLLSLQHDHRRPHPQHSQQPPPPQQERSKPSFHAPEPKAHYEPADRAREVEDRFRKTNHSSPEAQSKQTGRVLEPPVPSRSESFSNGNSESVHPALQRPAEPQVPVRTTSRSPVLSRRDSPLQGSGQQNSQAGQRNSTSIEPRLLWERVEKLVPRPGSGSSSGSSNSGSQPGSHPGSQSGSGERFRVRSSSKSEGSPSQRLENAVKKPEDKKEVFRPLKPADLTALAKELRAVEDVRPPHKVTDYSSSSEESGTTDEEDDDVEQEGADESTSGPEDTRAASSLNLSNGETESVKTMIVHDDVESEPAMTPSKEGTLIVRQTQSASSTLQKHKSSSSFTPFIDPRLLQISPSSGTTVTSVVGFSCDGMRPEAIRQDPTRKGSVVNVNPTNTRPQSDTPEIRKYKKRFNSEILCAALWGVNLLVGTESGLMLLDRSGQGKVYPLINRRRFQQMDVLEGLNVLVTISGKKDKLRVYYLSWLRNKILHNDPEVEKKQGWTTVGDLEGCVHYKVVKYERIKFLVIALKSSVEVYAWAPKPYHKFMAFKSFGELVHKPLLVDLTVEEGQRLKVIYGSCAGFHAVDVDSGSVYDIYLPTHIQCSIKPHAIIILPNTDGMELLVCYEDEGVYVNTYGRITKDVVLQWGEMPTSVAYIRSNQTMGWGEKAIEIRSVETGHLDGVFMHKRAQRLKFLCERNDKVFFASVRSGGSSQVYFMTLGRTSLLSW
Chain of Induced myeloid leukemia cell differentiation protein Mcl-1 (Q07820 whole entry): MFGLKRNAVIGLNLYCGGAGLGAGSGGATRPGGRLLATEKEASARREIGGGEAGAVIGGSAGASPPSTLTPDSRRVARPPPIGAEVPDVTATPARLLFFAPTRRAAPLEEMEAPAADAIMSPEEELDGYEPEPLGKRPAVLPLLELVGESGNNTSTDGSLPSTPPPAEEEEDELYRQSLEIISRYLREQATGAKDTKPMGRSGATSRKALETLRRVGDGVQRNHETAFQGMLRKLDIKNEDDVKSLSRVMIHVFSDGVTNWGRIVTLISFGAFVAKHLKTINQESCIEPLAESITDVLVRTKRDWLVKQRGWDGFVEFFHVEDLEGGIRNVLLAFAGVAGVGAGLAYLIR
Chain of Eukaryotic translation initiation factor 4E (P63073 whole entry): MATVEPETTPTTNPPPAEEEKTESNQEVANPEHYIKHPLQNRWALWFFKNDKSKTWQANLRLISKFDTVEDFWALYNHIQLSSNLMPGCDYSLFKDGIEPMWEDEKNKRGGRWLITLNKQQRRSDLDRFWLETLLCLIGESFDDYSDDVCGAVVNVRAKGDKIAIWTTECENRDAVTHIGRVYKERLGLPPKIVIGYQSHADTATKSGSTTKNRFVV
Chain of Heat shock 70 kDa protein 1A (P0DMV8 whole entry): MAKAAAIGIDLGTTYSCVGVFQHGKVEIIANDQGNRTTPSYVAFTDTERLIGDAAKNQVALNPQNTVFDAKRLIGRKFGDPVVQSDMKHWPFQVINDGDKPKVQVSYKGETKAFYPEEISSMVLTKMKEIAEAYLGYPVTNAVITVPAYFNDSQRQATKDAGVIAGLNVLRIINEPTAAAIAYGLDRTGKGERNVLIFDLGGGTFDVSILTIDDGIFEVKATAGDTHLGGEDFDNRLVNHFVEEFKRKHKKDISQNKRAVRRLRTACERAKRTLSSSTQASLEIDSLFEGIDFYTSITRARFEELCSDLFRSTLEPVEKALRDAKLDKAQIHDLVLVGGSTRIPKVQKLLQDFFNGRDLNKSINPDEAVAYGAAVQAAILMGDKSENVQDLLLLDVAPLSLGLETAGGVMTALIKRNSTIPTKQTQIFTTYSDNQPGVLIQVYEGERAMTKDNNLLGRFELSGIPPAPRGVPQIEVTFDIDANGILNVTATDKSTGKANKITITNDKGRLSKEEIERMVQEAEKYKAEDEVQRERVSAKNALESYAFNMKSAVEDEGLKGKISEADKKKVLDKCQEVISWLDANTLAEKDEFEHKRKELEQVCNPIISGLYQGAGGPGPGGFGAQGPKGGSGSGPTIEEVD

For `O=C(O)C1CC(c2ccccc2O)=NO1` (stereo not given), the EC50 in [1] and in [2] was > 100 µM (inactive) throughout.
For the compound `c1ccc(Cn2cc(-c3ccc4[nH]nc(-c5cn(Cc6ccccc6)nn5)c4c3)nn2)cc1`, the inhibitory constant (Ki) is 398 nM (active) in [3]; 50.1 nM (active) in experiment [4]; 15.8 nM (active) in experiment [5]; 3.98 µM (active) in [6]; > 7.94 µM (inactive) in [7]; 100 nM (active) in [8].
For `Cc1ccc2c(c1C)NC(C(=O)O)C1CC=CC21` (stereo not given), the IC50 in experiment [9] is 5.43 µM (active); at Bcl-2-like protein 10, 1.89 µM (active); in experiment [11], 80.8 µM (active); in experiment [13], 21.9 µM (active); at Large T antigen, 91.4 µM (active); in experiment [14], 7.18 µM (active). For the same compound, the IC50 in [15] was 6.2 µM (active); in [16], > 10 µM (not active); in experiment [17], 3.17 µM (active); in experiment [18], 8.68 µM (active); in experiment [19], 5.96 µM (active); in [20] it was 1.7 µM (active). Besides, the IC50 is 858 nM (active) in experiment [21], 30.3 µM (inactive) in [22] and 6.55 µM (active) in experiment [23]. For the same compound, the EC50 in [10] is 37.4 µM (active); in experiment [12], 21.7 µM (active).
